Values quoted from earlier work as cited in article PMC10532012, “A Putative Role of Vasopressin/Oxytocin-Type Neuropeptide in Osmoregulation and Feeding Inhibition of Apostichopus japonicus” (International Journal of Molecular Sciences, 2023).
“Also recorded” adds a separate entry of the source. Where no end group is shown, it is not given here.

Columns and labels:
mammals = system: mammals
Description: The conservative functions of VP/OT-type neuropeptide in vertebrates have been extensively studied, mainly including water homeostasis, reproduction and social behavior [43, 44, 45]. However, few functional studies of VP/OT-type neuropeptide in deuterostomian invertebrates especially in echinoderms have been reported. Related physiological studies of echinoderm VP/OT-type neu ...

rectum = system: rectum; set-up: method as in PMID 12972329
longitudinal muscle = details: 10^−7–10^−5 M; positive control
Experimental: To investigate the function of holotocin, longitudinal muscle, intestine and tentacle from A. japonicus were prepared. […] Firstly, the longitudinal muscle and intestine of A. japonicus were dissected and cut into strips approximately 20 mm in length. Then, these preparations were put into a 50 mL glass organ bath containing 2 ...

Lasius neglectus = details: inotocin signaling
Experimental: (§1) Based on the genes/transcripts encoding VP/OT-type neuropeptide signaling identified from protostomian and deuterostomian animals, the physiological effects of VP/OT superfamily signaling were analyzed and compared. In protostomes, multiple physiological functions of VP/OT-type neuropeptides in different Phylum have been characterized.

C. elegans = system: C. elegans
Experimental: as §1

For “CYIQNCPLG-NH2 (disulfide) [OT, neurohypophyseal hormone …-NH2]”, the lactation (mammals) is given as “stimulated lactation” and the uterine contraction (mammals) is given as “caused the uterine contraction”.
For octopressin, the contraction of rectum (rectum) is listed as “tonic contraction”.
For “NGIWYamide [neuropeptide used as positive control for contraction of longitudinal muscles]”, the “contraction of longitudinal muscle, NGIWYamide” value (longitudinal muscle) is given as “reported to cause contraction of longitudinal muscle preparations; also recorded: confirmed to cause contraction of longitudinal muscles”.
In the case of “CYFQNCPRG-NH2 (disulfide) [VP, neurohypophyseal hormone …-NH2]”, the antidiuretic activity (mammals) is listed as “had antidiuretic activity” and the blood pressure (mammals) is listed as “increased blood pressure”.
In the case of inotocin, the energy regulation (Lasius neglectus) is listed as “of vital importance in energy regulation”.
In the case of “Nematocin: VP/OT-type neuropeptide in nematode C. elegans (CFLNSCPYRRY; ends and bridges not checked; cysteine pairing not given here; UniProt Q4R128 20-30, looked up)”, the associative learning (C. elegans) is given as “neuro-modulatory role in associative learning”.
